The subject of one data set is MR. The note with it: Corvol et al. [19]; cited from earlier work.
In data set [1] the target is mineralocorticoid receptor. The note with it: Sutanto et al. [20]; read-out: half maximal inhibitory concentrations (IC50); cited from earlier work.
The subject of data set [2] is dexamethasone-induced delayed corneal wound healing. The data set is described as follows: Corneal re-epithelialization evaluation (fluorescein test) after corneal de-epithelialization. The data set is classed as in vivo, New Zealand white rabbit. Particulars: Day 4; mean ± SD. The method, then: Fifty male albino New Zealand rabbits weighing approximately 2.3-3.0 kg were included for this study (Iris Pharma, France). Animals were housed individually in standard cages, under identical environmental conditions. The temperature was kept at 15-21° C. and the relative humidity was >45%. Rooms were continuously ventilated (>15 air volumes per hour). Temperature and relative humidity were continuously controlled and recorded. Animals were routinely exposed (in-cage) to a 10-200 1× light in a 12-hour light/dark cycle (from 7:00 a.m. to 7:00 p.m.). Animals had enrichment and free access to food (150 g/day) and were allowed water ad libitum. All animals were healthy and free of clinically observable ocular abnormalities throughout the study. […]
The animals were anesthetized by an intramuscular injection of a ketamine-xylazine mixture. […] De-epithelialization was monitored by fluorescein staining. […]
The size of the corneal wound was evaluated using the fluorescein test immediately after ocular debridement and once a day before the first instillation of the day. A baseline was recorded before the de-epithelialization. […] Images of the corneal lesion (area stained by fluorescein) were taken using a CCD camera and analyzed using image J software. […]

The conditions of data set [3]: [26, 27]; cited from earlier work.

The values that follow come from US20210038563A1, “NEW SPIRONOLACTONE FORMULATIONS AND THEIR USE” (Apidel SA, priority 2018, published 2021).

Molecules are shown by their SMILES.

For the compound `C[C@]12CCC(=O)C=C1C=C[C@@H]1[C@@H]2CC[C@@]2(C)[C@H]1CC[C@@]21CCC(=O)O1` [CAN, Canrenone], the “Affinity for the MR, fold lower as compared to SPL” value with MR is 10 fold.

As to `C[C@]12CCC(=O)C=C1C=C[C@@H]1[C@@H]2CC[C@@]2(C)[C@H]1CC[C@@]2(O)CCC(=O)O` [CANK, potassium canrenoate], the “Affinity for the MR” value in the data set on MR was “very low affinity”. In addition, in data set [1], the IC50 is over 1000 nM.

Consider `C[C@@H]1C[C@H]2[C@@H]3CCC4=CC(=O)C=C[C@]4(C)[C@@]3(F)[C@@H](O)C[C@]2(C)[C@@]1(O)C(=O)CO` [DXM, Dexamethasone], for which the “Mean percentage of re-epithelialization” value in data set [2] amounted to 84.6±13.9%.

Consider `CC(=O)S[C@@H]1CC2=CC(=O)CC[C@]2(C)[C@H]2CC[C@@]3(C)[C@@H](CC[C@@]34CCC(=O)O4)[C@H]12` [SPL, 7α-Acetylthio-17α-hydroxy-3-oxopregn-4-ene-21-carboxylic acid γ-lactone], for which, in data set [3], the plasma half-life was 1.4 h.

On to `CS[C@@H]1CC2=CC(=O)CC[C@]2(C)[C@H]2CC[C@@]3(C)[C@@H](CC[C@@]34CCC(=O)O4)[C@H]12` [TMSPL, 7α-thiomethylspironolactone], for which, in data set [3], the plasma half-life was 13.8 h.
